The molecules below were run against recombinant Sphingomyelinase D (SMase D) from L. laeta venom (Loxosceles laeta, UniProt Q8I914) (assay: biochemical).
Chain of recombinant Sphingomyelinase D (SMase D) from L. laeta venom (Q8I914 27-311 limits assumed): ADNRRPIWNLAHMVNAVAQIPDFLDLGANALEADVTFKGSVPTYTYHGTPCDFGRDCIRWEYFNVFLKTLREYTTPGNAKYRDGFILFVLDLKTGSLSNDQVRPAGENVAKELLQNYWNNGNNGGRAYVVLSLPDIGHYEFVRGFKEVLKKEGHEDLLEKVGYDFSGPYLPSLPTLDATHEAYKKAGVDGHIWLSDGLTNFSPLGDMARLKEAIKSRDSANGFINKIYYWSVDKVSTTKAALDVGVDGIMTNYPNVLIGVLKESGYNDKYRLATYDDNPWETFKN

| SMILES | Ki [nM] |
| --- | --- |
| Cc1[nH]c2ccccc2c1/C=N/NS(=O)(=O)c1ccc(Br)cc1 [compound 5, 4-bromo-N-[(E)-(2-methyl-1H-indol-3-yl)methyleneamino]benzenesulfonamide] | 490 ± 100 |
| Cc1cc(OS(=O)(=O)c2ccc(Cl)cc2)cc2c1C(=O)/C(=C/c1cccnc1)O2 [compound 6, 4-methyl-3-oxo-2–(3-pyridylmethylene)benzo[3,4-b]furan-6-yl 4-chlorobenzenesulphonate] | 590 ± 230 |
| Cc1ccc(S(=O)(=O)Oc2cc(N)nc(SCc3ccc(C#N)cc3)n2)cc1 [compound 1, 6-amino-2-((4-cyanobenzyl)thio)pyrimidin-4-yl 4-methylbenzenesulphonate] | 540 ± 130 |

Reference: article PMC6327989 (Journal of Enzyme Inhibition and Medicinal Chemistry, 2019)
